Here are results for two compounds from patent US20150011423A1, “MEANS AND METHODS FOR ASSESSING KIDNEY TOXICITY” (BASF SE, priority 2011, published 2015).

Series [1] has as its system rats. Nature of the series: 28-day repeated dose study in rats with mass spectrometry-based plasma metabolite profiling (GC-MS, LC-MS, SPE-LC-MS); treatment ratios versus control.
Procedure: (§1) A group of each 5 male and female rats was dosed once daily with the indicated compounds (see Table 9, below for compounds, applied doses and administration details) over 28 days.
(§2) Each dose group in the studies consisted of five rats per sex. Additional groups of each 5 male and female animals served as controls. Before starting the treatment period, animals, which were 62-64 days old when supplied, were acclimatized to the housing and environmental conditions for 7 days. All animals of the animal population were kept under the same constant temperature (20-24±3° C.) and the same constant humidity (30-70%). The animals of the animal population were fed ad libitum. The food to be used was essentially free of chemical or microbial contaminants. Drinking water was also offered ad libitum. […] The illumination period was 12 hours light followed by 12 hours darkness (12 hours light, from 6:00 to 18:00, and 12 hours darkness, from 18:00 to 6:00). […] The test substances (compounds in Table 9 were dosed and administered as described in the table above.
(§3) In the morning of day 7, 14, and 28, blood was taken from the retroorbital venous plexus from fasted anaesthetized animals. From each animal, 1 ml of blood was collected with EDTA as anticoagulant. The samples were centrifuged for generation of plasma. All plasma samples were covered with a N2 atmosphere and then stored at −80° C. until analysis.
(§4) For mass spectrometry-based metabolite profiling analyses plasma samples were extracted and a polar and a non-polar (lipid) fraction was obtained. For GC-MS analysis, the non-polar fraction was treated with methanol under acidic conditions to yield the fatty acid methyl esters. Both fractions were further derivatised with O-methyl-hydroxyamine hydrochloride and pyridine to convert Oxo-groups to O-methyloximes and subsequently with a silylating agent before analysis. In LC-MS analysis, both fractions were reconstituted in appropriate solvent mixtures. HPLC was performed by gradient elution on reversed phase separation columns.
(§5) Steroids and their metabolites were measured by online SPE-LC-MS (Solid phase extraction-LC-MS).
(§6) Following comprehensive analytical validation steps, the data for each analyte were normalized against data from pool samples. These samples were run in parallel through the whole process to account for process variability. The significance of treatment group values specific for sex, treatment duration and metabolite was determined by comparing means of the treated groups to the means of the respective untreated control groups using WELCH-test and quantified with treatment ratios versus control and p-values.
The subject of series [2] is rats. The settings on record: rat, in vivo.
Procedure: as §1, §2, §3, §4, §5, §6
The mark [3] stands for this setting: plasma, male rats, day 28, high dose, Table 8a direct tubular effect.
The mark [4] stands for this setting: plasma, male rats, day 28, high dose, Table 8b direct tubular effect.

Several values for one entry are separate records, joined by “and”; a condition that tells them apart may be missing. Equal entries are not always repeated. Where two headings read alike, the source gives them in different places. Marks after values point to notes of the source that are not given here.

In the case of `Cn1c(=O)c2c(ncn2C)n(C)c1=O` [Caffeine], in the series with rats [1] (rat, in vivo), the “18-Hydroxy-11-deoxycorticosterone, treatment ratio versus control” value is on record as 0.38 *; the “Choline plasmalogen No 03, treatment ratio versus control” value is 1.55 * and 1.56 *; the “Creatinine, treatment ratio versus control” value is 0.84 *; the “Glutamate, treatment ratio versus control” value was 0.55 * and 0.65 * and 0.7 *. In the series with rats [1] (rat, in vivo), the “Glycine, treatment ratio versus control” value was 1.5 *; the “Hippuric acid, treatment ratio versus control” value was 0.38 *; the “Lysophosphatidylcholine (C20:4), treatment ratio versus control” value was 0.85 * and 0.87 * and 0.89 *; the “Malate, treatment ratio versus control” value was 0.61 * and 0.55 * and 0.54 *. For the same compound, in the series with rats [1] (rat, in vivo), the “Proline, treatment ratio versus control” value worked out at 1.23; the “Sphingomyelin (d18:2, C16:0), treatment ratio versus control” value is 2.34*; the “Threonine, treatment ratio versus control” value is 1.2 * and 1.59 *. Also, in the series on rats [2], the “Choline plasmalogen No 03, treatment ratio versus control” value was 1.25 *; the “Histidine, treatment ratio versus control” value is listed as 1.29 *; the “Pantothenic acid, treatment ratio versus control” value was 1.23 *; the “Threonic acid, treatment ratio versus control” value is recorded as 1.46 *. Moreover, in the series on rats [2], the “Threonine, treatment ratio versus control” value is listed as 1.58 *; the “Valine, treatment ratio versus control” value is 1.15 *; the “trans-4-Hydroxyproline, treatment ratio versus control” value is 1.23 *.

In the case of `Oc1ccc(O)cc1` [Hydroquinone], in the series on rats [1] (setting [3]), the “Glycerol-3-phosphate, polar fraction, treatment ratio versus control” value is 1.64 *; the “Isoleucine, treatment ratio versus control” value was 1.2 *; the “TAG No 02, treatment ratio versus control” value is recorded as 1.91 *; the “Threonine, treatment ratio versus control” value came out at 1.03. In addition, in the series with rats [1] (setting [4]), the “14-Methylhexadecanoic acid, treatment ratio versus control” value worked out at 0.81; the “16-Methylheptadecanoic acid, treatment ratio versus control” value is reported as 0.76; the “18-Hydroxy-11-deoxycorticosterone, treatment ratio versus control” value is reported as 0.23 *; the “Citrate, treatment ratio versus control” value is recorded as 0.82 *. Further, in the series with rats [1] (setting [4]), the “DAG (C18:1, C18:2), treatment ratio versus control” value is 0.43 *; the “Elaidic acid (C18:trans[9]1), treatment ratio versus control” value turned out to be 0.84; the “Isopalmitic acid (C16:0), treatment ratio versus control” value is recorded as 0.62; the “Ketoleucine, treatment ratio versus control” value is 0.75 *. For the same compound, in the series with rats [1] (setting [4]), the “Linolenic acid (C18:cis[9,12,15]3), treatment ratio versus control” value was 0.56 *; the “Lysophosphatidylcholine (C18:0), treatment ratio versus control” value is 0.99 *; the “Oleic acid (C18:cis[9]1), treatment ratio versus control” value was 0.75 *; the “Palmitoleic acid (C16:cis[9]1), treatment ratio versus control” value is recorded as 0.76 *. In the series with rats [1] (setting [4]), the “TAG (C16:0, C16:1), treatment ratio versus control” value was 0.4 * and the “trans-4-Hydroxyproline, treatment ratio versus control” value was 0.87 *. In addition, in the series on rats [2], the “Leucine, treatment ratio versus control” value is listed as 1.23 *; the “Lysophosphatidylethanolamine (C22:0), treatment ratio versus control” value is 1.26 *; the “Ornithine, treatment ratio versus control” value is given as 1.24 *.
